This is an account of results in patent publication US20230150951A1, “2,5- OR 2,6-DISUBSTITUTED HYDROQUINONE DERIVATIVES WITH AT LEAST ONE CARBOXY, SULFO OR AMIDO GROUP USEFUL AS MEDICAMENTS” (OM PHARMA SA, priority 2020, published 2023).

Common to all, as to assay type: cell-based
One test concerns the target T1, FGF-2 (Homo sapiens, UniProt P09038).
T1 construct: purchased Peprotech 100-18C
Description: FGF-2 induced sprouting of HUVEC, spheroid-based cellular angiogenesis assay. Particulars: FGF-2 25 ng/mL preincubated with compound, 24 h. In outline: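 Compound (final 100 down to 1.56×10^−6 M) was mixed with growth factor (final 25 ng/mL) for 30 min at 37°C, then added onto collagen-embedded 400-cell HUVEC spheroids.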

The next test has as its system IL-10. The experiment in a line: Cytokine release after LPS induction on human whole blood: IL-10. On the procedure: (§1) Aim of this in vitro method is to assess compounds effects on release of a panel of cytokines from whole blood following lipopolysaccharide (LPS) induced inflammatory reaction. Whole blood was incubated with compounds for 1 h prior to LPS induction. Cytokine levels in blood were measured using a multiplex FACS-based panel.
(§2) IC50 values determined for the tested compounds expressed in microM [μM] and the values for the inhibition of cytokines were listed for each compound.
(§3) Effect on cytokines release after LPS induction was performed on the compounds dissolved in DMSO or H2O to reach 10-fold concentrated stock solutions and dissolved in culture media.
(§4) Test system: Whole blood was removed from a single donor (into lithium heparin coated tubes; BD Vacutainer; 367886) and diluted 1:5 with RPMI 1640 (Thermo Fisher, 61870036). Within 30 minutes of sampling, blood was incubated with compounds for 1 h prior to LPS stimulation (O111:B4—Sigma L4391; 10 ng/ml final concentration). Stimulation continued under standard cell culture conditions (37° C. with 5% CO2) overnight (18 h), after which plates were centrifuged and supernatant removed and frozen at −80° C. until used for analyses.
(§5) Dilution of test compounds: 10×concentrated solutions (concerning to the final assay concentrations) of each test compound were prepared with the appropriate solvent (in DMSO or in water). These 10× compound solutions (10 μl) were then added to 90 μl pre-diluted whole blood (whole blood: RPMI1640, 1:5) resulting in the final assay concentration.
(§6) Test method: Diluted whole blood (80 μl) was pre-incubated with compounds (10 μl) to give final assay concentrations of 100, 30, 10, 3, 1, 0.3 and 0.1×10^−6M. Blood was incubated at 37° C. with 5% CO2 for 1 h. LPS was diluted in cell culture media to a concentration of […]; 10 μl was added to the whole blood to give a final concentration of 10 ng/ml. Plates were incubated at 37° C. for 18 h. Plates were centrifuged at 3,000 RPM for 5 minutes at 4° C. and supernatant removed and frozen at −80° C. until FACS analysis was carried out.
(§7) Cytokine release was measured using a custom multiplex system (ELISA Genie) according to manufacturers instructions. Prepared samples were run on an Attune NxT flow cytometer (Thermo Fisher).
(§8) Quantification of cytokine release inhibition: known concentration standards were run as part of the cytokine panel to allow quantification of each cytokine concentration in each sample. This was carried out using FCAP Array v3.0 software.
(§9) Results: The dose response relationship on cytokine release following LPS induction of inflammatory response in whole blood was assessed for all compounds. IC50 values were determined for each compound for a panel of cytokines (GM-CSF, IFN-gamma, IL-1beta, IL-2, IL-4, IL-5, IL-6, IL-8, IL-9, IL-10, IL-12p40, IL-13, IL-17A, IL-17F, IL-18, IL-21, IL-22, IL-33, TGF-beta, TNF-alpha, TNF-beta).

The next test has as its system IL-21. Description: Cytokine release after LPS induction on human whole blood: IL-21. How it is done:
as §1, §2, §3, §4, §5, §6, §7, §8, §9

The mark [1] stands for this setting: Homo sapiens, LPS 10 ng/ml, 18 h, read-out: Whole Blood: IL-10 IC50.
The mark [2] stands for this setting: human whole blood, inhibition of LPS induced inflammation, read-out: IC50 IL-10.
Where [3] appears, read: Homo sapiens, LPS 10 ng/ml, 18 h, read-out: Whole Blood: IL-21 IC50.
[4] abbreviates: human whole blood, inhibition of LPS induced inflammation, read-out: IC50 IL-21.

Read-outs that look alike come from different tables or passages of the source.

T1 sequence (P09038 134-288): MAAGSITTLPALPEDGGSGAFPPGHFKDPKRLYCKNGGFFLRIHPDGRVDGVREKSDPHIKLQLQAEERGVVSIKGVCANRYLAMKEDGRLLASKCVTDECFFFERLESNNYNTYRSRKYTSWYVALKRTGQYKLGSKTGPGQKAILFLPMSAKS

Regarding `O=C(O)Cc1cc(O)c(C(=O)Nc2ccccc2-c2nnn[nH]2)cc1O` [IIIa-001aTz], the 50% inhibitory concentration (IC50) at FGF-2 is 14 µM; in the test with IL-10 (setting [1]) it was 7.78 µM; in the test on IL-10 (setting [2]), 7.78 µM; in the test with IL-21 (setting [3]), 3 µM; in the test on IL-21 (setting [4]) it was 3 µM.
As for `O=C(O)Cc1cc(O)c(C(=O)Nc2c(C(=O)O)cccc2C(=O)O)cc1O` [IIIa-013a, 2-(4-(carboxymethyl)-2,5-dihydroxybenzamido)isophthalic acid], the 50% inhibitory concentration (IC50) stood at 31 µM on FGF-2; 37.3 µM with IL-10 (setting [1]); 37.3 µM in the test with IL-10 (setting [2]); 1.63 µM in the test on IL-21 (setting [3]); 1.63 µM with IL-21 (setting [4]).
In the case of `CC(=O)N(Cc1cc(O)c(C(=O)O)cc1O)Cc1cc(O)c(C(=O)O)cc1O` [IIIc-057a, N,N-Bis(4-carboxy-2,5-dihydroxyphenylmethyl)acetamide], the 50% inhibitory concentration (IC50) is 77 µM on FGF-2; above 100 µM in the test on IL-10 (setting [1]); 100 µM in the test on IL-10 (setting [2]); 1.56 µM in the test on IL-21 (setting [3]); 1.56 µM with IL-21 (setting [4]).
On to `O=C(O)c1cc(O)c(CN(Cc2cc(O)c(C(=O)O)cc2O)Cc2cc(O)c(C(=O)O)cc2O)cc1O` [IIIc-061a, Tris(4-carboxy-2,5-dihydroxyphenylmethyl)amine], for which the 50% inhibitory concentration (IC50) came out at 7.6 µM at FGF-2; 17.9 µM in the test on IL-10 (setting [1]); 17.9 µM in the test with IL-10 (setting [2]); 6.38 µM in the test on IL-21 (setting [3]); 6.38 µM in the test on IL-21 (setting [4]).
In the case of `O=C(O)c1ccccc1CNC(=O)c1cc(O)cc(C(=O)O)c1O` [IIa-053a, 3-(2-Carboxyphenylmethylaminocarbonyl)-2,5-dihydroxybenzoic acid], the IC50 is 18 µM at FGF-2; above 100 µM in the test on IL-10 (setting [1]); 100 µM in the test on IL-10 (setting [2]); above 100 µM in the test on IL-21 (setting [3]); 100 µM with IL-21 (setting [4]).
For the compound `O=C(O)c1cc(NC(=O)c2cc(O)cc(C(=O)Nc3ccc(O)c(C(=O)O)c3)c2O)ccc1O` [IIc-007a, 5-(3-(3-carboxy-4-hydroxyphenylaminocarbonyl)-2,5-dihydroxybenzamido)-2-hydroxy benzoic acid], the IC50 at FGF-2 came to 91 µM; in the test with IL-10 (setting [1]), 17.9 µM; in the test on IL-10 (setting [2]), 17.9 µM; in the test on IL-21 (setting [3]), 9.41 µM; with IL-21 (setting [4]), 9.41 µM.
On to `O=C(O)c1cc(O)ccc1NC(=O)c1cc(O)cc(C(=O)Nc2ccc(O)cc2C(=O)O)c1O` [IIc-009a, 2-(3-(2-carboxy-4-hydroxyphenylaminocarbonyl)-2,5-dihydroxybenzamido)-5-hydroxyl benzoic acid], for which the IC50 with IL-10 (setting [1]) amounted to 11.3 µM; with IL-10 (setting [2]), 11.3 µM; in the test on IL-21 (setting [3]) it was 8.01 µM; in the test on IL-21 (setting [4]), 8.01 µM.
Take `O=C(O)c1cc(O)cc(CSCc2cc(O)cc(C(=O)O)c2O)c1O` [IVc-058a, 3-((2,5-Dihydroxy-3-carboxyphenyl)methylthiomethyl)-2,5-dihydroxybenzoic acid]: the IC50 at FGF-2 is 4.9 µM; in the test with IL-10 (setting [1]) it was 16.4 µM; in the test on IL-10 (setting [2]), 16.4 µM; in the test on IL-21 (setting [3]) it was 3.2 µM; in the test with IL-21 (setting [4]) it was 3.2 µM.
`O=C(O)c1cc(O)cc(CS(=O)(=O)Cc2cc(O)cc(C(=O)O)c2O)c1O` [IVc-059a, 3-((2,5-Dihydroxy-3-carboxyphenyl)methylsulfonylmethyl)-2,5-dihydroxybenzoic acid]: the half-inhibitory concentration (IC50) on FGF-2 worked out at 2.7 µM; with IL-10 (setting [1]), 1.31 µM; with IL-10 (setting [2]), 1.31 µM; in the test on IL-21 (setting [3]), 1.87 µM; in the test with IL-21 (setting [4]) it was 1.87 µM.
On to `COC(=O)c1cc(OC(C)=O)cc(CS(=O)(=O)Cc2cc(OC(C)=O)cc(C(=O)OC)c2OC(C)=O)c1OC(C)=O` [IVc-059a-E2-A4], for which the IC50 is at least 200 µM at FGF-2; 16.8 µM in the test with IL-10 (setting [1]); 16.8 µM in the test with IL-10 (setting [2]); above 100 µM with IL-21 (setting [3]); 100 µM in the test with IL-21 (setting [4]).
As to `O=C(O)c1cc(O)c(C(=O)Nc2ccccc2C(=O)O)cc1O` [Ia-001a, 4-(2-carboxyphenylaminocarbonyl)-2,5-dihydroxybenzoic acid], the 50% inhibitory concentration (IC50) on FGF-2 is 39 µM; with IL-10 (setting [1]) it was above 100 µM; in the test with IL-10 (setting [2]), 100 µM; in the test with IL-21 (setting [3]), above 100 µM; in the test with IL-21 (setting [4]) it was 100 µM.
With `O=C(O)c1cc(O)c(C(=O)Nc2ccccc2-c2nnn[nH]2)cc1O` [Ia-001a-Tz, 4-(2-(1H-tetrazol-5-yl)phenyl-aminocarbonyl)-2,5-dihydroxybenzoic acid], the IC50 at FGF-2 was 20 µM; with IL-10 (setting [1]), 26.1 µM; with IL-10 (setting [2]), 26.1 µM; with IL-21 (setting [3]), above 100 µM; with IL-21 (setting [4]), 100 µM.
With `O=C(O)c1cc(O)c(C(=O)Nc2ccccc2S(=O)(=O)O)cc1O` [Ia-001c, 2,5-dihydroxy-4-(2-sulfophenylaminocarbonyl)benzoic acid], the IC50 on FGF-2 was 13 µM; in the test with IL-10 (setting [1]), 1.9 µM; in the test on IL-10 (setting [2]), 1.9 µM; in the test on IL-21 (setting [3]) it was above 100 µM; with IL-21 (setting [4]) it was 100 µM.
Turning to `O=C(O)c1cc(O)c(C(=O)Nc2ccc(-c3nnn[nH]3)cc2)cc1O` [Ia-003a-Tz, 4-(4-(1H-tetrazol-5-yl)phenyl-aminocarbonyl)-2,5-dihydroxybenzoic acid], the half-inhibitory concentration (IC50) was found to be 45 µM at FGF-2; 6.94 µM in the test with IL-10 (setting [1]); 6.94 µM in the test with IL-10 (setting [2]); 1.49 µM with IL-21 (setting [3]); 1.49 µM in the test on IL-21 (setting [4]).
In the case of `O=C(O)c1cc(NC(=O)c2cc(O)c(C(=O)O)cc2O)cc(C(=O)O)c1` [Ia-015a, 5-(4-carboxy-2,5-dihydroxybenzamido)isophthalic acid], the IC50 at FGF-2 was 9.3 µM; in the test with IL-10 (setting [1]), 5.27 µM; with IL-10 (setting [2]), 5.27 µM; with IL-21 (setting [3]) it was 57.2 µM; with IL-21 (setting [4]) it was 57.2 µM.
Take `O=C(O)c1cc(NC(=O)c2cc(O)c(C(=O)O)cc2O)cc(NC(=O)c2cc(O)c(C(=O)O)cc2O)c1` [Ib-010a, 3,5-bis(2,5-dihydroxy-4-carboxybenzoylamino)benzoic acid]: the IC50 was 3.8 µM at FGF-2; above 100 µM with IL-10 (setting [1]); 100 µM in the test with IL-10 (setting [2]); 67.8 µM with IL-21 (setting [3]); 67.8 µM in the test with IL-21 (setting [4]).
On to `CCOC(=O)c1cc(NC(=O)c2cc(O)c(C(=O)OCC)cc2O)cc(NC(=O)c2cc(O)c(C(=O)OCC)cc2O)c1` [Ib-010a-E3, ethyl 3,5-bis(2,5-dihydroxy-4-ethoxycarbonylbenzoylamino)benzoate], for which the IC50 is above 100 µM with IL-10 (setting [1]), 100 µM in the test with IL-10 (setting [2]), above 100 µM with IL-21 (setting [3]) and 100 µM in the test with IL-21 (setting [4]).
For `O=C(O)c1cc(NC(=O)c2cc(O)c(C(=O)Nc3ccccc3-c3nnn[nH]3)cc2O)ccc1O` [Ic-001a-Tz/004a, 5-(4-(2-(1H-tetrazol-5-yl)phenylaminocarbonyl)-2,5-dihydroxybenzamido)-2-hydroxy benzoic acid], the IC50 at FGF-2 was found to be 87 µM; with IL-10 (Homo sapiens, 18 h, read-out: Whole Blood: IL-10 IC50), 19.5 µM; with IL-10 (Homo sapiens, read-out: IC50 IL-10), 19.5 µM; in the test with IL-21 (Homo sapiens, 18 h, read-out: Whole Blood: IL-21 IC50), 0.3 µM; in the test on IL-21 (Homo sapiens, read-out: IC50 IL-21), 0.3 µM.
Regarding `O=C(Nc1ccccc1-c1nnn[nH]1)c1cc(O)c(C(=O)Nc2ccccc2-c2nnn[nH]2)cc1O` [Ic-001aTz2, N1,N4-bis(2-(1H-tetrazol-5-yl)phenyl)-2,5-dihydroxyterephthalamide], the IC50 at FGF-2 is 70 µM; in the test with IL-10 (setting [1]), above 100 µM; in the test with IL-21 (setting [3]), 32 µM.
Turning to `O=C(O)c1cc(NC(=O)c2cc(O)c(C(=O)Nc3ccc(O)c(C(=O)O)c3)cc2O)ccc1O` [Ic-007a, 5-(4-(3-carboxy-4-hydroxyphenylaminocarbonyl)-2,5-dihydroxybenzamido)-2-hydroxy benzoic acid], the IC50 in the test on IL-10 (setting [1]) was determined as 12.5 µM; with IL-10 (setting [2]) it was 12.5 µM; with IL-21 (setting [3]), 1.9 µM; with IL-21 (setting [4]), 1.9 µM.

The term IC50 denotes the midpoint of a concentration-inhibition curve.
